This note sets out measurements from EPA's ToxValDB 9.5 (doi:10.2903/j.efsa.2009.213r).

In general, NOAEL refers to the highest tested level that showed no adverse finding.

≈ marks a conversion by molar mass, not a printed value. Where only a bound is given, the exact number is not on record here.

One data set concerns Anas platyrhynchos. The following applies: oral, mortality.
A further data set deals with Apis mellifera. The following applies: acute, duration: 48 hours, mortality.
A further data set concerns Canidae. The settings on record: acute; oral; Dog Other; mortality.
The test system of the next data set is Daphnia magna. The settings on record: chronic/long-term; duration: 21 days; reproduction.
The subject of another data set is Mus musculus. The following applies: chronic; duration: 2 years; histopathology: nonneoplastic.
For the next data set, the system named is Oncorhynchus mykiss. The following applies: mortality.
A further data set concerns Oryctolagus sp. The settings on record: developmental; development.
The next data set concerns Pleurozium sp. The following applies: acute; duration: 72 hours; biomass.
The next data set relates to Rattus norvegicus. The following applies: for NOAEL: histopathology: nonneoplastic.
A further data set deals with Tagia sp. The settings on record: acute; mortality.
A further data set deals with Aphidius rhopalosiphi. In words: LR50; higher = less toxic. The settings on record: not reported; mortality.
The test system of the next data set is Typhlodromus pyri. In words: LR50; higher = less toxic. The settings on record: not reported; mortality.

On to `CCOc1ccc(C(C)(C)COCc2cccc(Oc3ccccc3)c2)cc1` [Etofenprox], for which the LD50 was > 2000 mg/kg with Anas platyrhynchos (acute, unspecified); 0.015 µg/piece in the data set with Apis mellifera (dermal); 0.024 µg/piece in the data set on Apis mellifera (oral, unspecified); > 5000 mg/kg in the data set on Canidae; > 2000 mg/kg with Rattus norvegicus (acute, oral, mortality). The LC50 in the data set with Anas platyrhynchos (short-term, feed) was > 1280 mg/kg-day; in the data set on Colinus virginianus (acute, oral, diet, mortality), > 806 mg/kg-day; in the data set on Oncorhynchus mykiss (acute, duration: 96 hours), 2.7 ng/mL (≈ 7.17 nM); in the data set on Tagia sp., > 47.2 mg/kg. Also, in the data set on Colinus virginianus (reproduction developmental), the NOEL was 89.6 mg/kg-day. The NOEC in the data set with Daphnia magna is 5.4e-05 mg/L; with Oncorhynchus mykiss (chronic/long-term, duration: 21 days), 0.0021 mg/L; with Pleurozium sp., 0.15 mg/L. Besides, the no-observed-adverse-effect level (NOAEL) with Mus musculus stood at 3.1 mg/kg-day; in the data set on Oryctolagus sp., 100 mg/kg-day; in the data set with Rattus norvegicus (chronic, duration: 2 years), 3.7 mg/kg-day; in the data set with Rattus norvegicus (subchronic, duration: 13 weeks, oral, diet), 20 mg/kg-day. For the same compound, the LR50 with Aphidius rhopalosiphi amounted to 0.42 g/ha; in the data set with Typhlodromus pyri, 0.7 g/ha.
